Laboratory results published in patent US20170281470A1, “METHOD AND APPARATUS FOR DRY GRANULATION” (ATACAMA LABS OY, priority 2006, published 2017).

Experiment: Agglomeration during storage at room temperature and ambient humidity
Type: physicochemical
Conditions: stored in room temperature and ambient humidity

Q: For `CN(C)C(=N)N=C(N)N` [100% metformin fine powder, metformin], which agglomeration during storage is on record?
A: Its agglomeration during storage is “heavy agglomeration”.
